Measurements published in paper PMC4703063, “Dual functionality of O-GlcNAc transferase is required for Drosophila development” (Open Biology, 2015).

How the values were obtained:
Δ1–352 DmOGT [1] = biological target: T1, Δ1–352 DmOGT (Drosophila melanogaster, UniProt Q7KJA9, K872M); assay: X-ray crystallography (co-crystal, […] Å); format: binding; conditions: 3 mM UDP-5S-GlcNAc; pH 7.5 protein buffer; 21 °C
T1 construct: gene sxc; N-terminally truncated construct starting at residue 353 in TPR 10 (part of TPRs plus catalytic domain); expressed in E. coli (ArcticExpress), purified as hOGT Δ1-312; wild type in kinetics, K872M in crystal
T1 sequence (Q7KJA9 353-1059 K872M): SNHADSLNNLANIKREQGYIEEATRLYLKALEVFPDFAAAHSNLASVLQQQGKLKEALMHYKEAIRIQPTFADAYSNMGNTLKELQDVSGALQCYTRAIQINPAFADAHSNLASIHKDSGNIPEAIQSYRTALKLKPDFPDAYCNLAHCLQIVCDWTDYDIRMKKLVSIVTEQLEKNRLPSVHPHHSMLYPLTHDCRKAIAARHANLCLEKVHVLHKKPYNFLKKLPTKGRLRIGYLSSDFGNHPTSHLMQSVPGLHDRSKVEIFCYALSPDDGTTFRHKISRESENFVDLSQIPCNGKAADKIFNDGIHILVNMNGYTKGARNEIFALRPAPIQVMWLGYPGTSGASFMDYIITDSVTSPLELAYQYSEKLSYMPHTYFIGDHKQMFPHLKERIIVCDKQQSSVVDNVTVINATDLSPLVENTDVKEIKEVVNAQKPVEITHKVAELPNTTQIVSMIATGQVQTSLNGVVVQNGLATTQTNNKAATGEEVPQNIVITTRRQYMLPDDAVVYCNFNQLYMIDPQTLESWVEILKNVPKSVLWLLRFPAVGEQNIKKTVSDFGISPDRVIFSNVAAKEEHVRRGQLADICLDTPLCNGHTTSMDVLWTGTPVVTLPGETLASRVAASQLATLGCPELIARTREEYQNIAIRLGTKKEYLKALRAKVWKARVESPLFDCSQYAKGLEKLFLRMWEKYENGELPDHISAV

Δ1–352 DmOGT [2] = biological target: T2, Δ1–352 DmOGT (Drosophila melanogaster, UniProt Q7KJA9); assay: radiometric transfer assay on RBL2 peptide, Ki from IC50 by Cheng-Prusoff; format: biochemical
T2 construct: gene sxc; N-terminally truncated construct starting at residue 353 in TPR 10 (part of TPRs plus catalytic domain); expressed in E. coli (ArcticExpress), purified as hOGT Δ1-312; wild type in kinetics, K872M in crystal
T2 sequence (Q7KJA9 353-1059): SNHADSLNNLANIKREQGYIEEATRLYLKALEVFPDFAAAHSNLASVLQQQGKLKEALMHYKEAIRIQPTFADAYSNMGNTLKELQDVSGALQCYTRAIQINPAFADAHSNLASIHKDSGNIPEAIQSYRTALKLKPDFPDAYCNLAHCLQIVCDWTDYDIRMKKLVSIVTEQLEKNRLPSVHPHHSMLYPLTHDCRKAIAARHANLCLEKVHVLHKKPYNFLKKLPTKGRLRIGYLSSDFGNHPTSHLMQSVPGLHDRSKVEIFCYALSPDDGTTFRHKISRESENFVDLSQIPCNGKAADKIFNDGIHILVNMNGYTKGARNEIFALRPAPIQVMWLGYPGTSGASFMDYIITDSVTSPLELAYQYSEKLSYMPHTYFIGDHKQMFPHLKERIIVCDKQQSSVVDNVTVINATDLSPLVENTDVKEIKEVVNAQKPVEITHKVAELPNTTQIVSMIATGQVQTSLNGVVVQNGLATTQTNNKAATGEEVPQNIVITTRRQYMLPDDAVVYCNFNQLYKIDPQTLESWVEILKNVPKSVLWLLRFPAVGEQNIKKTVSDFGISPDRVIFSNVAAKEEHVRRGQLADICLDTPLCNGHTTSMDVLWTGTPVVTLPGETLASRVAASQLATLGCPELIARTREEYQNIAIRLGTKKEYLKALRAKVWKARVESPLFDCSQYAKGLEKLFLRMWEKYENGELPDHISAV

Δ1–352 DmOGT [3] = biological target: T2, Δ1–352 DmOGT; assay: radiometric transfer assay on RBL2 peptide, three-parameter dose-response fit; format: biochemical
Δ1–312 hOGT [4] = biological target: T3, Δ1–312 hOGT (Homo sapiens, UniProt O15294); assay: as above; format: biochemical
T3 construct: gene OGT; N-terminally truncated, residues 1-312 removed (printed once as Δ1-313 beside the Ki); part of TPRs plus catalytic domain; recombinant
T3 sequence (O15294 323-1041): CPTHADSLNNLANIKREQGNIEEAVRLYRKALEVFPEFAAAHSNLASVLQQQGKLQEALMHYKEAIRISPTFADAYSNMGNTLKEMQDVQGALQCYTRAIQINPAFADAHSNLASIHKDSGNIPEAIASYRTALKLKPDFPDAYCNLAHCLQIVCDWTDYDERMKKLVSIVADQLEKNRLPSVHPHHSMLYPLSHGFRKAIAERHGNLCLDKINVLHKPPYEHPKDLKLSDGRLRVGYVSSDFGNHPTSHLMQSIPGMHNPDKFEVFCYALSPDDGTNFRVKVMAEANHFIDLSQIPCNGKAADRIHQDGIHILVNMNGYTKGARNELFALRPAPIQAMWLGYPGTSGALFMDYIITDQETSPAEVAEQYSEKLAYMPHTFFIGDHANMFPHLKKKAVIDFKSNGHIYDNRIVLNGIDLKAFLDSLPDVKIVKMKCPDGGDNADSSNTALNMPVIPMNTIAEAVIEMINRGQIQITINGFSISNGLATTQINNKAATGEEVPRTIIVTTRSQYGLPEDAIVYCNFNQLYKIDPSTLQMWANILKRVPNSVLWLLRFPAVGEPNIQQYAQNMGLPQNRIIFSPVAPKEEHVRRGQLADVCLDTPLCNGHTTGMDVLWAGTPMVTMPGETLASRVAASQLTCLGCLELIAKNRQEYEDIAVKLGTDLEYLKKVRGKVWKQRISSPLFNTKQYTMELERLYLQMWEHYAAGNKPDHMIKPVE

Δ1–312 hOGT [5] = biological target: T3, Δ1–312 hOGT; assay: radiometric transfer assay on RBL2 peptide, Ki from IC50 by Cheng-Prusoff; format: biochemical
[6] = substrate: CC(=O)N[C@H]1[C@@H](OP(=O)(O)OP(=O)(O)OC[C@H]2O[C@@H](n3ccc(=O)[nH]c3=O)[C@H](O)[C@@H]2O)O[C@H](CO)[C@@H](O)[C@@H]1O; assay: radiometric transfer assay on RBL2 peptide, Michaelis-Menten fit; format: biochemical, Homo sapiens; conditions: 0.25 mM RBL2 peptide …, UDP-[3H]-GlcNAc tracer, pH 7.5
[7] = substrate: CC(=O)N[C@H]1[C@@H](OP(=O)(O)OP(=O)(O)OC[C@H]2O[C@@H](n3ccc(=O)[nH]c3=O)[C@H](O)[C@@H]2O)O[C@H](CO)[C@@H](O)[C@@H]1O; assay: as above; format: biochemical, Drosophila melanogaster; conditions: 0.25 mM RBL2 peptide …, UDP-[3H]-GlcNAc tracer, pH 7.5

CC(=O)N[C@@H]1[C@@H](O)[C@H](O)[C@@H](CO)S[C@@H]1OP(=O)(O)OP(=O)(O)OC[C@H]1O[C@@H](n2ccc(=O)[nH]c2=O)[C@H](O)[C@@H]1O [UDP-5S-GlcNAc]
X-ray crystallography (co-crystal, 2.7 Å) (Δ1–352 DmOGT [1]): crystallized in complex with the inhibitor/substrate analogue UDP-5S-GlcNAc
Ki (Δ1–352 DmOGT [2]): 36.2 µM
IC50 (Δ1–352 DmOGT [3]): 68.3 µM
IC50 (Δ1–312 hOGT [4]): 24.6 µM
Ki (Δ1–312 hOGT [5]): 13.6 µM

B1: Δ1–312 hOGT (Homo sapiens) (protein)
chain: CPTHADSLNNLANIKREQGNIEEAVRLYRKALEVFPEFAAAHSNLASVLQQQGKLQEALMHYKEAIRISPTFADAYSNMGNTLKEMQDVQGALQCYTRAIQINPAFADAHSNLASIHKDSGNIPEAIASYRTALKLKPDFPDAYCNLAHCLQIVCDWTDYDERMKKLVSIVADQLEKNRLPSVHPHHSMLYPLSHGFRKAIAERHGNLCLDKINVLHKPPYEHPKDLKLSDGRLRVGYVSSDFGNHPTSHLMQSIPGMHNPDKFEVFCYALSPDDGTNFRVKVMAEANHFIDLSQIPCNGKAADRIHQDGIHILVNMNGYTKGARNELFALRPAPIQAMWLGYPGTSGALFMDYIITDQETSPAEVAEQYSEKLAYMPHTFFIGDHANMFPHLKKKAVIDFKSNGHIYDNRIVLNGIDLKAFLDSLPDVKIVKMKCPDGGDNADSSNTALNMPVIPMNTIAEAVIEMINRGQIQITINGFSISNGLATTQINNKAATGEEVPRTIIVTTRSQYGLPEDAIVYCNFNQLYKIDPSTLQMWANILKRVPNSVLWLLRFPAVGEPNIQQYAQNMGLPQNRIIFSPVAPKEEHVRRGQLADVCLDTPLCNGHTTGMDVLWAGTPMVTMPGETLASRVAASQLTCLGCLELIAKNRQEYEDIAVKLGTDLEYLKKVRGKVWKQRISSPLFNTKQYTMELERLYLQMWEHYAAGNKPDHMIKPVE
notes: N-terminally truncated, residues 1-312 removed (printed once as Δ1-313 beside the Ki); part of TPRs plus catalytic domain; recombinant
Km [6]: 6.6 ± 0.3 µM

B2: Δ1–352 DmOGT (Drosophila melanogaster) (protein)
chain: SNHADSLNNLANIKREQGYIEEATRLYLKALEVFPDFAAAHSNLASVLQQQGKLKEALMHYKEAIRIQPTFADAYSNMGNTLKELQDVSGALQCYTRAIQINPAFADAHSNLASIHKDSGNIPEAIQSYRTALKLKPDFPDAYCNLAHCLQIVCDWTDYDIRMKKLVSIVTEQLEKNRLPSVHPHHSMLYPLTHDCRKAIAARHANLCLEKVHVLHKKPYNFLKKLPTKGRLRIGYLSSDFGNHPTSHLMQSVPGLHDRSKVEIFCYALSPDDGTTFRHKISRESENFVDLSQIPCNGKAADKIFNDGIHILVNMNGYTKGARNEIFALRPAPIQVMWLGYPGTSGASFMDYIITDSVTSPLELAYQYSEKLSYMPHTYFIGDHKQMFPHLKERIIVCDKQQSSVVDNVTVINATDLSPLVENTDVKEIKEVVNAQKPVEITHKVAELPNTTQIVSMIATGQVQTSLNGVVVQNGLATTQTNNKAATGEEVPQNIVITTRRQYMLPDDAVVYCNFNQLYKIDPQTLESWVEILKNVPKSVLWLLRFPAVGEQNIKKTVSDFGISPDRVIFSNVAAKEEHVRRGQLADICLDTPLCNGHTTSMDVLWTGTPVVTLPGETLASRVAASQLATLGCPELIARTREEYQNIAIRLGTKKEYLKALRAKVWKARVESPLFDCSQYAKGLEKLFLRMWEKYENGELPDHISAV
notes: N-terminally truncated construct starting at residue 353 in TPR 10 (part of TPRs plus catalytic domain); expressed in E. coli (ArcticExpress), purified as hOGT Δ1-312; wild type in kinetics, K872M in crystal
Km [7]: 17.8 ± 0.7 µM
